# Experimental data as given in patent US20070190043A1 (Biofrontera AG, priority 2003, published 2007).
# Experiments:
# HaCaT keratinocytes = assay: Proliferation of HaCaT keratinocytes (Cell Titer Viability Assay, luminescence); assay type: cell-based; settings: 48 hours; for inhibition of proliferation of keratinocytes: comparable to negative control
# Method: As further control cells were used, which were only incubated in KBM (KBM).
# For this purpose 5×10^3 HaCaT keratinocytes were seeded into 60 wells of a 96 well-plate in 200 μl KBM/10% FCS each and incubated for 24 hours at 37° C. […] At the end of the second incubation period the medium was removed and the proliferation of cells was determined with the Cell Titer Viability Assay of Promega (#G7571/G7572) according to the manufacturer's instructions. A lowered luminescence with respect to the positive control (in RLU relative luminescence units) correlated with a lowered proliferation. Values obtained from the wells without cells were subtracted from the mean of the 6 wells with cells as background value. At least 4 independent experiments were carried out.
# [1] = administration of up to 100 mg, therapy of lateral sclerosis; cited from earlier work
smiles,measurement,setting,value
"Nc1nc2ccc(OC(F)(F)F)cc2s1 [Riluzole, 2-amino-6-(trifluoromethoxy)-benzothiazole]",inhibition of proliferation of keratinocytes,HaCaT keratinocytes; 100 μmol/l Riluzole,complete inhibition of proliferation
same,inhibition of proliferation of keratinocytes,HaCaT keratinocytes; 250 μmol/l Riluzole,complete inhibition of proliferation
same,concentration at which an inhibition of the proliferation was already observed,"HaCaT keratinocytes; HaCaT keratinocytes, versus control KBM+10% FCS",1 µmol/L
same,adverse effect anestenia,[1],18 % of the treated patients
same,adverse effect nausea,[1],16 % of all treated patients
